{"source": "PubChem BioAssay AID248", "about": "(DTP/NCI, 2004)", "test_system": "L1210 leukemia ip in BDF1 mice, survival T/C", "assay": "NCI In Vivo Anticancer Drug Screen. Data for tumor model L1210 Leukemia (intraperitoneal) in B6D2F1 (BDF1) mice", "settings": "endpoint: mean survival time, schedule: Q01DX001 (ip), vehicle: carboxymethylcellulose (CMC), higher = longer survival", "summary_of_the_method": "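Tumor was transplanted into mice, which were then dosed with test compound or vehicle alone. Survival was recorded for each group, and the treated figure was expressed relative to the control figure.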", "note": "Toxic doses and inconclusive results are not listed.", "data": [{"smiles": "COc1cccc(/C(C)=C2\\SC(=S)NC2=O)c1", "values": [{"measurement": "T/C", "setting": "dose: 100.0 mg/kg/injection", "value": "100 % of control"}, {"measurement": "T/C", "setting": "dose: 200.0 mg/kg/injection", "value": "94 % of control"}]}]}
